From ChEMBL document CHEMBL3988442, “University of Dundee, Small-Polar-MMV Screening Library” (2021)
“And” between values parts separate entries of the source, which are not always exact repeats. Equal entries are not always repeated.

Tests used:
[1] = biological target: Polyketide synthase Pks13 (Mycobacterium tuberculosis (strain ATCC 25618 / H37Rv), UniProt I6X8D2); assay: Mycobacterium tuberculosis Polyketide synthase 13 Thioesterase (PKS13); type: functional
[2] = microbe, parasite or virus in culture; settings: Mycobacterium tuberculosis, 96 h, read-out: pIC50 (converted)
[3] = microbe, parasite or virus in culture; settings: Mycobacterium tuberculosis, 72 h, read-out: pIC50 (converted)

Sequence of Polyketide synthase Pks13 (I6X8D2 whole entry): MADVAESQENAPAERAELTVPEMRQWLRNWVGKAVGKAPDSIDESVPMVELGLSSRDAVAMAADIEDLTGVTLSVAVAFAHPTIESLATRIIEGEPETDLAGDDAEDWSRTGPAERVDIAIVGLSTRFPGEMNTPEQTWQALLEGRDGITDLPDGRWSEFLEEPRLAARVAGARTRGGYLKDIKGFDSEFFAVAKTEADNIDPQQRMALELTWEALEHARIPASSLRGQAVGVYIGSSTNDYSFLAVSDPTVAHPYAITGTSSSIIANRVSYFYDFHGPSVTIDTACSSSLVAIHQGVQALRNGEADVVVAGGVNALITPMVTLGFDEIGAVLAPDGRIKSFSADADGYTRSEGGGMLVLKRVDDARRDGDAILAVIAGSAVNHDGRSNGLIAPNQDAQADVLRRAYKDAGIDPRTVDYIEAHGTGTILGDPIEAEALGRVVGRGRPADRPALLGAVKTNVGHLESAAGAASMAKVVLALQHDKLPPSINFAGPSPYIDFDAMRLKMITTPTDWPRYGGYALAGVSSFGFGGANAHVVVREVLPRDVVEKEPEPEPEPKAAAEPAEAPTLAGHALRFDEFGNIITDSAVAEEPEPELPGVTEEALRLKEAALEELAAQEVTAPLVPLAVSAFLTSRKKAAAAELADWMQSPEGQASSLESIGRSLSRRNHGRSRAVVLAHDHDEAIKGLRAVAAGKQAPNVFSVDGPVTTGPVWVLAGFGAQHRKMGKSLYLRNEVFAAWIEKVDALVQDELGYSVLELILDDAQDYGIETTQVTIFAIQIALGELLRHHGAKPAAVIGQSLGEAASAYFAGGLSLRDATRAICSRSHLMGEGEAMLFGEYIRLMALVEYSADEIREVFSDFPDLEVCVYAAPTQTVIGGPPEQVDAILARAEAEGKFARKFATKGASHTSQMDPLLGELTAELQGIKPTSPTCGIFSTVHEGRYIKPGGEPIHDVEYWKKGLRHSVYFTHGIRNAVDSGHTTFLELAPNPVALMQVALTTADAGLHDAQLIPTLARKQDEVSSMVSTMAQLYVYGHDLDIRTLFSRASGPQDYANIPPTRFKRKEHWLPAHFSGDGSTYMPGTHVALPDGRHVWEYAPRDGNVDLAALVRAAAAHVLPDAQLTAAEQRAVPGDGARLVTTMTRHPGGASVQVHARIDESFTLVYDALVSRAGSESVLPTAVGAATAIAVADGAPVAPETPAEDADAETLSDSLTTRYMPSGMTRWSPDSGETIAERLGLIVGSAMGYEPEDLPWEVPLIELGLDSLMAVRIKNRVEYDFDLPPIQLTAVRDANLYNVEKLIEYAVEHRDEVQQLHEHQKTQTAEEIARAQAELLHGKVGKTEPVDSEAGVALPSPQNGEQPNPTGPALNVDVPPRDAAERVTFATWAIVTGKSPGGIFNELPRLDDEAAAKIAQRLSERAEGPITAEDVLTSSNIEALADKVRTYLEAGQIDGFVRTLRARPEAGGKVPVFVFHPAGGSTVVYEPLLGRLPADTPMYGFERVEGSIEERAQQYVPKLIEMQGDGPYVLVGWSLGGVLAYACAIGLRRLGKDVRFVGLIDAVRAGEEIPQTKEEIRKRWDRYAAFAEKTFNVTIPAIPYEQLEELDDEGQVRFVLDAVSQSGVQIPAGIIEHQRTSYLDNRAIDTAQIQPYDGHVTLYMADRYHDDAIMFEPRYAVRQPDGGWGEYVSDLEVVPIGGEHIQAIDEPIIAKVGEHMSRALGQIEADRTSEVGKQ

Structure (SMILES) | IC50 [1] | IC50 [2] [µM] | IC50 [3] [µM]
Cc1cc(C)n(-c2cncc(NCCNS(C)(=O)=O)n2)n1 | 20.9 µM and 8.18 µM | – | –
CNc1cncc(C2CCCN2c2cc(C)ncn2)n1 (stereo not given) | 20.5 µM and 30.5 µM | – | –
Cc1noc([C@@H]2C[C@H]3OCC[C@H]3N(S(=O)(=O)c3cccnc3)C2)n1 | > 100 µM | – | –
Cc1nc(-c2ccc(Cl)s2)sc1C(=O)N(C)CC(N)=O | 30.9 µM and 43.8 µM | – | –
O=C(Nc1cc(CSCCO)ccn1)c1ccc(Cl)o1 | > 100 µM and 98.1 µM | – | –
CC(C)c1nc(CN(C)C2CCN(CCNS(C)(=O)=O)C2)no1 (stereo not given) | > 100 µM | – | –
CCOCC1CN(C(=O)c2cccs2)Cc2cnn(CC3CC3)c21 (stereo not given) | > 100 µM | – | –
CN1CC2(CCCN(Cc3nnc(-c4ccco4)o3)CC2)OC1=O (stereo not given) | > 100 µM | – | –
COc1ccc2c(C(=O)N(C)C)cc(-c3cnc(N)nc3)nc2c1 | 30.4 µM and 38.7 µM | – | –
N#Cc1nccnc1N1CCC(CSc2ccccc2)C1 (stereo not given) | 18.6 µM and 20.2 µM | 4.96 | 18.9
O=C(Nc1nc2c(s1)CN(S(=O)(=O)C1CC1)CC2)c1cccc(Cl)c1 | 12.2 µM and 20.2 µM | – | –
CN(C)C[C@@H]1[C@H]2CN(C(=O)c3cc(=O)[nH]c4ccc(F)cc34)C[C@@H]12 | 98.5 µM and > 100 µM | – | –
COCCN1CCCC2(CCN(c3nccnc3N(C)C)C2)C1=O (stereo not given) | > 100 µM | – | –
NC(=O)c1cc(C2CC2)nc2ccc(F)cc12 | > 100 µM | – | –
Cc1nn(C)cc1-c1ccnc(N(C)Cc2ccoc2)n1 | > 100 µM | – | –
Cc1nc(-c2ccc(Cl)s2)sc1C(=O)NCCS(N)(=O)=O | 33.3 µM and 21 µM | – | –
Cc1noc(CNc2ccc(CC(=O)N3CCSCC3)cc2)n1 | > 100 µM | – | –
CCC(=O)NCC(=O)NCC(C)(C)c1cccc(Br)c1 | > 100 µM | – | –
COc1ccc(CCC(C)Nc2cccc(SC)c2)cc1 (stereo not given) | 23 µM and 23.6 µM | 14.3 | 14.1
CCc1nnc(CN2CCOC(Cn3cc(C)cn3)C2)o1 (stereo not given) | > 100 µM | – | –
CN(C)C(=O)c1cn[nH]c1C1(C)CCN(c2ncccn2)CC1 | > 100 µM | – | –
CN(Cc1ccc(N2CCCCC2)cc1)Cc1noc(C(C)(C)C)n1 | > 100 µM | – | –
Cc1cc(S(=O)(=O)Nc2cccc(I)c2)sc1C(=O)O | 6.1 µM and 15.1 µM | – | –
COc1ccccc1N1CCC(CNS(=O)(=O)c2cccs2)C1 (stereo not given) | 10.3 µM and 4.51 µM | – | –
O=C1CC(NCc2cnc(N3CCCC3)nc2)CN1c1ccccc1 (stereo not given) | > 100 µM | – | –
Nc1nccnc1CC1CCCN(Cc2ccnc3ccccc23)C1 (stereo not given) | > 100 µM | – | –
Cn1ccnc1C(=O)N1C[C@@H]2CCN(c3cnccn3)C[C@@H]2C1 | > 100 µM | – | –

Structure (SMILES) | IC50 [1] | IC50 [2] [µM] | IC50 [3] [µM]
CCOC(=O)CNC(=O)NCc1cc(C)n(-c2ccccc2OC)c1C | > 100 µM | – | –
CNC(=O)c1cnc(/C=C/c2cc(OC)cc(OC)c2)s1 | 29.1 µM and 11 µM | – | –
COc1cccc(-c2cc(NCC(=O)O)nc3[nH]ccc23)n1 | 29.9 µM and 35.7 µM | – | –
Cc1ccnc(OC[C@]23COC[C@H]2CN(C(=O)c2ncccn2)C3)n1 | > 100 µM | – | –
O=C(c1ccco1)N1CCO[C@@H]2CN(c3ccccn3)CC[C@@H]2C1 | > 100 µM | – | –
COc1ccc2[nH]cc(-c3ccnc(N4CCC(C)CC4)n3)c2c1 | 33.7 µM and 30 µM | – | –
CC1=N[C@@]2(CC[C@@H]3CN(S(C)(=O)=O)C[C@@H]32)C(=O)N1CC(C)C | > 100 µM | – | –
COCc1noc(-c2ccc(N(C)Cc3ccc(C)o3)nc2)n1 | > 100 µM | 18.1 | –
CC(=O)N1CCCC1c1ccc(Br)cn1 (stereo not given) | > 100 µM | – | –
O=C(O)C1c2nc[nH]c2CCN1Cc1ccccc1-c1ccccc1 (stereo not given) | > 100 µM | – | –
COc1cccc(-c2noc(-c3ccc(NCC(C)C)nc3)n2)c1OC | 15.7 µM and 26.8 µM | – | –
CNC(=O)CNC1CC2(CCN(c3ncccn3)CC2)c2ccccc21 (stereo not given) | > 100 µM | – | –
O=C(NCc1ccc2c(c1)OCCO2)N1CCC(CO)CC1 | > 100 µM | – | –
CCC1(C)Cc2ccccc2-c2nc(NCCO)nc(O)c21 (stereo not given) | 31.8 µM and 28.8 µM | – | –
O=C(CCc1cc(Cl)no1)N1CCC(c2cc3ncccc3cn2)CC1 | > 100 µM | – | –
Cn1cncc1-c1nnc([C@H]2CCN(Cc3ncc[nH]3)C2)o1 | > 100 µM | – | –
Cc1ccc(C(=O)N2CCC3(CC2)c2ccccc2[C@@H](N)[C@@H]3O)c(=O)[nH]1 | > 100 µM | – | –
Cc1nnsc1C(=O)N1CC[C@H](c2ccccc2)[C@@H]2[C@H]1CCCCN2C | > 100 µM | – | –
COc1ccc(NC(C)C(=O)N2CCCC2)cn1 (stereo not given) | > 100 µM | – | –
Cc1ccccc1S(=O)(=O)N[C@@H]1CC[C@@H](N2CCNC(=O)C2)[C@@H]1O | > 100 µM | – | –
CC(=O)c1ccc(N2CCCC(CO)(CCc3ccccc3)C2)nc1 (stereo not given) | 72.2 µM and 69.8 µM | – | –
COc1cccc(CN2CCC3(COCc4cnc(N(C)C)nc43)C2)c1 (stereo not given) | > 100 µM | > 50.1 | > 50.1
Cc1cccc(-n2nnnc2C(C)(C)Nc2ccccc2C)c1 | 13.8 µM and 11.7 µM | – | –
O=C(COCc1ccccc1Cl)N1CCN(c2ccc(Br)cn2)CC1 | 26.1 µM and 19.2 µM | – | –
COc1cccc(CN2CCC3(CCN(c4ncc(C)cn4)CC3)C2)c1 | > 100 µM | – | –
CC1(C(=O)NCc2cccnc2Oc2ccc(F)c(F)c2)CCCNC1 (stereo not given) | > 100 µM | – | –
